The results in this text go back to PubChem BioAssay (NCI).

Test systems include A549 NSCLC; HCT-116 colon; HS 578T breast; IGROV1 ovarian; MDA-MB-231 breast; NCI-H226 lung; NCI-H23 lung; RPMI-8226 leukemia; SF-268 CNS; SNB-19 CNS; T-47D breast; U251 CNS.
What all share (assay): DTP human tumour cell line panel, 48 h

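Following 48 hours of exposure in 96-well plates, responses at five concentrations were used to interpolate endpoints linearly. TGI marks complete inhibition of growth.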

Usually TGI stands for the concentration giving total growth inhibition. Read a high TGI as lower sensitivity of the cells. For `COc1ccc(/C(Nc2ccccc2)=C(\CCl)c2ccccc2)cc1OC`, the total growth inhibition concentration (TGI) is more than 100 µM in the assay with A549 NSCLC; 48.9 µM in the assay on HCT-116 colon; more than 100 µM in the assay on HS 578T breast; more than 100 µM in the assay with IGROV1 ovarian; more than 100 µM in the assay with MDA-MB-231 breast; more than 100 µM in the assay on NCI-H226 lung. For the same compound, the TGI in the assay on NCI-H23 lung is more than 100 µM; with RPMI-8226 leukemia it was more than 100 µM; in the assay with SF-268 CNS, more than 100 µM; in the assay with SNB-19 CNS it was more than 100 µM; in the assay with T-47D breast it was more than 100 µM; with U251 CNS it was 64.7 µM.
